Results on 13 molecules are retold here after patent US20240132485A1, “HETEROCYCLIC CULLIN RING UBIQUITIN LIGASE COMPOUNDS AND USES THEREOF” (CEMM - FORSCHUNGSZENTRUM FÜR MOLEKULARE MEDIZIN GMBH, priority 2020, published 2024).

Assay [1] deals with KBM7 cells (wild-type). Briefly: KBM7 CTG EC50 assay (UBE2M wild-type). Type of assay: cell-based, human. The note with it: for EC50: Homo sapiens, KBM-7, 72 h incubation, CellTiter-Glo, read-out: KBM7 CTG EC50 (UBE2M wild-type) Activity Class; for Ratio UBE2M WT to KO: ratio of anti-proliferative activity in KBM7 wild-type versus UBE2M knock-out cells (fold). The source says: (§1) This is a cell viability assay to measure the desired therapeutic effect, i.e. killing of cancer cells. The UBE2M mutant cell line has impaired activity of the Cullin-RING ligase system due to a hypomorphic mutation in UBE2M, which is required for activation of these E3 ligases. By comparison with WT cells, it is possible to estimate the contribution of Cyclin K degradation (which is reduced in UBE2M mut cells) compared to kinase inhibition of CDK12 (which is unaffected in UBE2M mut cells). Since the UBE2M mutation only reduces CRL function without fully abrogating it, this assay may slightly underestimate the effect of degradation because, at high compound concentrations, degradation may still be observed.
(§2) KBM7 cells (wild-type or harboring α hypomorphic UBE2M mutation (Mayor-Ruiz et al., 2019)) were seeded in a white opaque 384-well plate at a density of 1000 cells per well in duplicate, in full medium (IMDM+10% FBS+1% penicillin-streptomycin). Cells were treated with compounds in a 10-point titration with a dilution factor of 1:4 (range: 0 to 20 μM). After 72 h of incubation, the cell viability was determined using the CellTiter-Glo® 2.0 reactant (Promega), pre-diluted 1:4 in mQ water. The luminescence signal was measured using the multimode plate reader EnVision 2105 (Perkin Elmer).
In general terms: ATP-based viability assays read luminescence as a measure of living cells.

The target of assay [2] is T1, DDB1-CDK12/Cyclin K ternary complex (Homo sapiens, UniProt Q16531+Q9NYV4).
T1 construct: expressed in transfected cells; host or cells: HEK293T wildtype cells, transient PEI transfection
The experiment in a line: NanoBRET EC50 assay (HaloTag_CDK12 / NanoLuc_DDB1 in HEK293T). Format: cell-based. The note with it: 10-point titration from 20 μM, HEK293T; for EC50: read-out: NanoBRET EC50 Activity Class. Here is the method:
(§3) This assay measures the interaction/recruitment of CDK12/Cyclin K to DDB1, mechanistically validating the molecular glue pharmacology.
(§4) HEK293T wildtype cells are seeded 800 k cells/well (DMEM+10% FBS+1% PS) in a 6-well plate and allowed to attach for ˜7 hours followed by a transient transfection of 1.5 μg HaloTag_CDK12 Plasmid [Table 1] and 0.15 μg NanoLuc_DDB1 plasmid [Table 1] per well using PEI. Cells are incubated at 37° C., 5% CO2, harvested after 24 hours and resuspended in assay media (Opti-MEM Reduced serum media, no phenol red, 4% FBS, 1% PS). Cells are adjusted to 2.3×10^5 cells/ml and treated with HaloTag 618 Ligand at 100 nM or DMSO. 8000 cells are seeded per well in triplicates per compound in a white-walled 384-well plate, one negative control treated with DMSO instead of HaloTag 618 Ligand is seeded in triplicates and the 384-well plate is incubated at 37° C., 5% CO2 overnight. Compound stock solutions are prepared in Opti-MEM−/− (Opti-MEM I Reduced serum media, no phenol red) at 8× and used to treat the cells at a final concentration of 1× at 10 μM. Cells and compounds are incubated for 10 minutes at room temperature followed by addition of NanoBRET Nano-Glo substrate following manufacturer's protocols. The plate is shaken for 30 sec followed by immediate measurement of donor emission (NanoBRET Blue at 460 nm) and acceptor emission (BRET Deep Red at 647 nm) for 0.5 s.
The assay setup is identical to “NanoBRET fold change experimental setup”. Instead of treating cells in […] with 10 μM compound, a 10-point titration starting at 20 μM is performed with a dilution factor of 1:4, covering α range of 20000 nM-0.076 nM.

For assay [3], the system named is CCNK. Briefly: NanoLuc-CCNK degradation assay (HEK293T_Nluc_CCNK-tagged cells). Format: cell-based. Conditions: 4 h incubation, HEK293T_Nluc_CCNK-tagged cells; for DC50: read-out: NanoLuc-CCNK degradation DC50 Activity Class. The method, then: The assay helps to elucidate the mechanistic explanation of the cell killing effect of the compounds of the present invention. Cyclin K is fused to a nanoluciferase, light emission is measured as a proxy of Cyclin K abundance. Potency of Cyclin K degradation and cytotoxicity of KBM7 correlate extremely well, further supporting Cyclin K degradation being the main driver of the cell killing, as opposed to inhibition of CDK12 catalytic activity.
HEK293T_Nluc_CCNK-tagged cells were engineered by integrating a nanoluciferase tag at the N-terminus of the endogenous locus of CCNK using CRISPR-Cas9 technology. Briefly, 5.5 million HEK293T cells were co-transfected by PEI with a 1:1 ratio of cutting vector (sgRNA: […]) and repair template (4 μg total plasmid) as previously described (Brand and Winter, 2019). The repair sequence comprises a cassette of puromycinR-P2A-HA-Nluc-(G4S)3 (P2A: self-cleaving peptide 2A, HA: HA-tag, (G4S)3: flexible linker), surrounded by 20-nucleotide microhomologies matching the genomic locus. After 3 days of incubation, the recombinant population was selected by puromycin treatment (2 μg/ml, 5-day treatment). A monoclonal population was obtained by limiting dilution and cassette integration validated by Sanger sequencing.
HEK293T_Nluc_CCNK-tagged cells were seeded in a white opaque 384-well plate at a density of 8000 cells per well in duplicate, in full medium (Opti-MEM I+4% FBS+1% PS). Cells were treated with compounds in a 10-point titration (range: 0 to 10 μM, 1:4 dilution). After 4 h of incubation, Nano-Glo substrate (Promega), pre-diluted in serum-free medium (Opti-MEM I), was added to the cells (1:500 final dilution). The luminescence signal was directly measured using the multimode plate reader EnVision 2105 (Perkin Elmer).

Assay [4] relates to KBM7 cells harboring a hypomorphic UBE2M mutation. Briefly: KBM7 CTG EC50 assay (UBE2M knock-out). Type of assay: cell-based. The note with it: Homo sapiens, KBM-7; 72 h incubation, CellTiter-Glo; read-out: KBM7 CTG EC50 (UBE2M knock-out) Activity Class.
Excerpt: as §1, §2

Assay [5] concerns the target T1, DDB1-CDK12/Cyclin K ternary complex. Briefly: NanoBRET fold-change assay (HaloTag_CDK12 / NanoLuc_DDB1 in HEK293T). Type of assay: cell-based. Conditions: 10 μM compound, 10 minutes. The method, then: as §3, §4

The structures appear in SMILES notation.

T1 sequence (Q9NYV4 whole entry): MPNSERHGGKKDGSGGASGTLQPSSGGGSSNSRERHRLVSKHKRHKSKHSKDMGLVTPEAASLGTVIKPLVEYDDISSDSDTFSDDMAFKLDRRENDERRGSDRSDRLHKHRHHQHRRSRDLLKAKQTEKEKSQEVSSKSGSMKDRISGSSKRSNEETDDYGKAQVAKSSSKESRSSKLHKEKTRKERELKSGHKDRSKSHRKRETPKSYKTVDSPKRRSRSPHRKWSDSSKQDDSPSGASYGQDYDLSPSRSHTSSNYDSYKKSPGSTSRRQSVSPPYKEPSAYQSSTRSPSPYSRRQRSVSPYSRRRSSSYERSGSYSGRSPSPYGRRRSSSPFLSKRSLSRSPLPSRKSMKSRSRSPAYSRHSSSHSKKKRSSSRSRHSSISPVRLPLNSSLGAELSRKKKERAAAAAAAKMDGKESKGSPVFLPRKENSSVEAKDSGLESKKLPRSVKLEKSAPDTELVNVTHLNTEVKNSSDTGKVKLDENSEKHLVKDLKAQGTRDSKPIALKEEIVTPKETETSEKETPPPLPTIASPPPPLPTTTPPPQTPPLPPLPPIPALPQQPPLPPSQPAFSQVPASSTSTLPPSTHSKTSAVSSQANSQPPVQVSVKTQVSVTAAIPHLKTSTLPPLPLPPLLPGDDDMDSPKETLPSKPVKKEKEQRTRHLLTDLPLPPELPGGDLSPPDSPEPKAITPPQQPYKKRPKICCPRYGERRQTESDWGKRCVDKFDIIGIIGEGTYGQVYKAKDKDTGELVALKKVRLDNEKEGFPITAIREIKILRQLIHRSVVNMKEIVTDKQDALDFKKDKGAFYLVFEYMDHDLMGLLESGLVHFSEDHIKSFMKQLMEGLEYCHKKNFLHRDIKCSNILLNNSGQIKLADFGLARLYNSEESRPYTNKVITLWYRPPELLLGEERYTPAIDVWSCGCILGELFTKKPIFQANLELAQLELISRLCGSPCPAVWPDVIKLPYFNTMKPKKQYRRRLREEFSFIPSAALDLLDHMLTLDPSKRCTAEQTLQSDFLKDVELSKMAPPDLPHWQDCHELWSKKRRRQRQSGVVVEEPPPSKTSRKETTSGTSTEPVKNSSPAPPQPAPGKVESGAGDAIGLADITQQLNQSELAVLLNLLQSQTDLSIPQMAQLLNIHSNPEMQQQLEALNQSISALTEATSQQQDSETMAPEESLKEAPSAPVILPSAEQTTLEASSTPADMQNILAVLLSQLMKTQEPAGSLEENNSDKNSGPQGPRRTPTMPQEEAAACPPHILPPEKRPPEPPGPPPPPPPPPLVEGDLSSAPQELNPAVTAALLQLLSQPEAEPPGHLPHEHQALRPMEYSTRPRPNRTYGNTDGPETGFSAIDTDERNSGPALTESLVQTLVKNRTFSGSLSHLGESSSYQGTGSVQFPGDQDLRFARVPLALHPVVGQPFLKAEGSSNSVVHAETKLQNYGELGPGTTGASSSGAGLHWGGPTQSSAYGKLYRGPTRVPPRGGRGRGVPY
T1 sequence (Q16531 whole entry): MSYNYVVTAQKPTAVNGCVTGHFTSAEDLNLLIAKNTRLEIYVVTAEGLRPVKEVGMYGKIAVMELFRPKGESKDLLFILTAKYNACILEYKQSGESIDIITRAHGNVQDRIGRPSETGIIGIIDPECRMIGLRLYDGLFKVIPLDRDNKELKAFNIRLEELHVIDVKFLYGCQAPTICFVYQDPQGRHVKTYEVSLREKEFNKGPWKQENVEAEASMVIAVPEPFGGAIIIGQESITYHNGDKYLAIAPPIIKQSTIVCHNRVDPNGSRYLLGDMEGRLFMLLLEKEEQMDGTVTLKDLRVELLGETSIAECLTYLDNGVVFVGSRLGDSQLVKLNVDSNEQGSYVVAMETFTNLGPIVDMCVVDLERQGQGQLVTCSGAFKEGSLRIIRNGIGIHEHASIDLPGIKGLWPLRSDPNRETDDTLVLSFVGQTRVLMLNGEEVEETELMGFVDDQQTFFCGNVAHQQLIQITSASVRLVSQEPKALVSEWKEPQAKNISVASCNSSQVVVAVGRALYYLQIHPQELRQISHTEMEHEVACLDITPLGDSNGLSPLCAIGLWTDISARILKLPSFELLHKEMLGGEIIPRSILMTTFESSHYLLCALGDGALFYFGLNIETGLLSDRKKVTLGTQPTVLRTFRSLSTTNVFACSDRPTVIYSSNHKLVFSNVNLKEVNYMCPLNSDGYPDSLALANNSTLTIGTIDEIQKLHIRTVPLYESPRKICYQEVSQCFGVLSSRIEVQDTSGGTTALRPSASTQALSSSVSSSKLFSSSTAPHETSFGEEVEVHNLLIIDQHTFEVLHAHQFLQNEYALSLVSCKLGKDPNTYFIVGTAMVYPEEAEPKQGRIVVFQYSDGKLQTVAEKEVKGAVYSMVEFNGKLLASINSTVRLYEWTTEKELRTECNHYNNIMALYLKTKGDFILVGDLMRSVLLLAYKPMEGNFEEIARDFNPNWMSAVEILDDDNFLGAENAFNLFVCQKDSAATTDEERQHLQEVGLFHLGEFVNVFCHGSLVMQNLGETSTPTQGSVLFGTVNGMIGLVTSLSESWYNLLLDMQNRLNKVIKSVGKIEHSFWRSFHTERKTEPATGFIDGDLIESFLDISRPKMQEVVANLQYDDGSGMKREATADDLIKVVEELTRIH
T1 sequence (O75909 whole entry partner): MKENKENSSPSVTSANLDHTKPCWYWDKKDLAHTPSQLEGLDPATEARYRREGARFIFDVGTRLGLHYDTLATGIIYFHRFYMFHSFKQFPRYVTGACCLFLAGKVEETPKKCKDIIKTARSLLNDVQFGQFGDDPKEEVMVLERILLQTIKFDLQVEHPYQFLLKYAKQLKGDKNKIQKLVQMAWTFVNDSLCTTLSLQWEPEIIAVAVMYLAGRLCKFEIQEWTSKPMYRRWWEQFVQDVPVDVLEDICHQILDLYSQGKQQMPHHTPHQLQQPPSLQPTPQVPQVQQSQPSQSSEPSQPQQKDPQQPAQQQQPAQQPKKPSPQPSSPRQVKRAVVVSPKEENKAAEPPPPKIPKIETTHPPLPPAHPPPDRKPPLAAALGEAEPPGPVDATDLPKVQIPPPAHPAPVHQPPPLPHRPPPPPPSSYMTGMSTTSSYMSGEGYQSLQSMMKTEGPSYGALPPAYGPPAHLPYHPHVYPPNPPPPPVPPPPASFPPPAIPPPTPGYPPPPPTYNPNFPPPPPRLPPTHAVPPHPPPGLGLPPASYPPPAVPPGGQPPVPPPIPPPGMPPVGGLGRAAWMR

By EC50 is commonly meant the concentration that produces a half-maximal response. As to `O=C(CCn1cnc2ccccc2c1=O)Nc1ncc(C(F)(F)F)s1` [Example 3-63, 3-(4-oxoquinazolin-3(4H)-yl)-N-(5-(trifluoromethyl)thiazol-2-yl)propanamide], the EC50 in assay [1] is at most 0.25 µM; in assay [2] it was over 10 µM; in assay [4] it was 1 to 10 µM. The “Ratio UBE2M WT to KO” value in assay [1] came out at 13.9. For the same molecule, the “NanoLuc-CCNK degradation DC50 Activity Class” value in assay [3] is reported as “B (0.50 μM≤DC50<0.10 μM)”. Also, the “NanoBRET fold-change Activity Class” value in assay [5] is “B (3-4 fold increase)”.
Regarding `Cc1ccc2c(CC(=O)Nc3ccc(C4CC4)cn3)coc2c1C` [Example 3-52, N-(5-cyclopropylpyridin-2-yl)-2-(6,7-dimethylbenzofuran-3-yl)acetamide], the EC50 in assay [1] is at most 0.25 µM; in assay [2], at most 0.25 µM; in assay [4], 1 to 10 µM. Besides, the “Ratio UBE2M WT to KO” value in assay [1] was 27.0. The “NanoLuc-CCNK degradation DC50 Activity Class” value in assay [3] is “B (0.50 μM≤DC50<0.10 μM)”. Further, the “NanoBRET fold-change Activity Class” value in assay [5] is “A (greater than 4-fold increase)”.
In the case of `O=C(Cc1c[nH]c2cccnc12)Nc1ncc(C(F)(F)F)s1` [Example 3-40, 2-(1H-pyrrolo[3,2-b]pyridin-3-yl)-N-(5-(trifluoromethyl)thiazol-2-yl)acetamide], the EC50 in assay [1] is at most 0.25 µM; in assay [4], over 10 µM. Moreover, in assay [1], the “Ratio UBE2M WT to KO” value is on record as over 200. Besides, the “NanoBRET EC50 Activity Class” value in assay [2] is reported as “B (0.50 μM≤EC50≤0.25 μM)”. For the same molecule, the “NanoLuc-CCNK degradation DC50 Activity Class” value in assay [3] was “D (10 μM≤DC50<1.0 μM)”.
The term DC50 denotes the concentration giving 50% degradation. With `O=C(Cc1ccc2cnccc2c1)Nc1ncc(C(F)(F)F)s1` [Example 3-31, 2-(isoquinolin-6-yl)-N-(5-(trifluoromethyl)thiazol-2-yl)acetamide], the concentration for a half-maximal effect (EC50) was 1 to 10 µM in assay [1] and over 10 µM in assay [4]. The “Ratio UBE2M WT to KO” value in assay [1] is over 4. Moreover, the DC50 in assay [3] is over 10 µM. Also, in assay [5], the “NanoBRET fold-change Activity Class” value is reported as “C (2-3 fold increase)”.
On to `O=C(Nc1ncc(C(F)(F)F)s1)C1CC(=O)N(c2ccccc2Cl)C1` (stereo not shown) [Example 3-20, 1-(2-chlorophenyl)-5-oxo-N-(5-(trifluoromethyl)thiazol-2-yl)pyrrolidine-3-carboxamide], for which, in assay [1], the half-maximal effective concentration (EC50) lay in the range of 0.25 to 0.5 µM and the “Ratio UBE2M WT to KO” value is on record as over 10. In addition, the DC50 in assay [3] is over 10 µM. The concentration for a half-maximal effect (EC50) in assay [4] is over 10 µM. In addition, the “NanoBRET fold-change Activity Class” value in assay [5] was “C (2-3 fold increase)”.
In the case of `O=C(Nc1ncc(C(F)(F)F)s1)C1CC(=O)N(c2ccc3c(c2)CCC3)C1` (stereo not shown) [Example 3-24, 1-(2,3-dihydro-1H-inden-5-yl)-5-oxo-N-(5-(trifluoromethyl)thiazol-2-yl)pyrrolidine-3-carboxamide], in assay [1], the concentration giving a half-maximal response (EC50) was at most 0.25 µM and the “Ratio UBE2M WT to KO” value is recorded as 23.8. The “NanoLuc-CCNK degradation DC50 Activity Class” value in assay [3] is “B (0.50 μM≤DC50<0.10 μM)”. Also, the concentration giving a half-maximal response (EC50) in assay [4] was in the range of 1 to 10 µM. For the same molecule, in assay [5], the “NanoBRET fold-change Activity Class” value is on record as “B (3-4 fold increase)”.
As to `O=C(CCn1cnc2ccc(Br)cc2c1=O)Nc1ncc(C(F)(F)F)s1` [Example 3-65, 3-(6-bromo-4-oxoquinazolin-3(4H)-yl)-N-(5-(trifluoromethyl)thiazol-2-yl)propanamide], in assay [1], the EC50 lay within 0.5 to 1 µM and the “Ratio UBE2M WT to KO” value is over 13. Moreover, the “NanoLuc-CCNK degradation DC50 Activity Class” value in assay [3] is given as “B (0.50 μM≤DC50<0.10 μM)”. In addition, the EC50 in assay [4] was over 10 µM. Further, the “NanoBRET fold-change Activity Class” value in assay [5] is on record as “B (3-4 fold increase)”.
The matching figures for `O=C(Nc1ncc(C(F)(F)F)s1)C1CC(=O)N(c2cc(F)cc(F)c2)C1` (stereo not shown) [Example 3-21, 1-(3,5-difluorophenyl)-5-oxo-N-(5-(trifluoromethyl)thiazol-2-yl)pyrrolidine-3-carboxamide]: at most 0.25 µM, 44.5, “B (0.50 μM≤DC50<0.10 μM)”, 1 to 10 µM and “B (3-4 fold increase)”.
Regarding `O=C(Nc1ncc(C(F)(F)F)s1)C1CC(=O)N(c2ccc(F)c(F)c2)C1` (stereo not shown) [Example 3-23, 1-(3,4-difluorophenyl)-5-oxo-N-(5-(trifluoromethyl)thiazol-2-yl)pyrrolidine-3-carboxamide], in assay [1], the EC50 is at most 0.25 µM and the “Ratio UBE2M WT to KO” value is given as over 10. The DC50 in assay [3] was over 10 µM. In addition, the half-maximal effective concentration (EC50) in assay [4] was over 10 µM. For the same molecule, the “NanoBRET fold-change Activity Class” value in assay [5] was “B (3-4 fold increase)”.
As for `O=C(Cc1cn2cc(Cl)cc(Cl)c2n1)Nc1ncc(C(F)(F)F)s1` [Example 3-8, 2-(6,8-dichloroimidazo[1,2-a]pyridin-2-yl)-N-(5-(trifluoromethyl)thiazol-2-yl)acetamide], in assay [1], the 50% effective concentration (EC50) was at most 0.25 µM and the “Ratio UBE2M WT to KO” value is 51.5. For the same molecule, the 50% degradation concentration (DC50) in assay [3] is at most 0.1 µM. For the same molecule, the 50% effective concentration (EC50) in assay [4] was at most 0.25 µM. In assay [5], the “NanoBRET fold-change Activity Class” value is “A (greater than 4-fold increase)”.
As to `O=C(Cc1cccc2cnccc12)Nc1ncc(C(F)(F)F)s1` [Example 3-30, 2-(isoquinolin-5-yl)-N-(5-(trifluoromethyl)thiazol-2-yl)acetamide], in assay [1], the EC50 is over 10 µM and the “Ratio UBE2M WT to KO” value was over 1. The DC50 in assay [3] is over 10 µM. The half-maximal effective concentration (EC50) in assay [4] is over 10 µM. Moreover, the “NanoBRET fold-change Activity Class” value in assay [5] is on record as “C (2-3 fold increase)”.
For `Cc1ccc(CN2CC(C(=O)Nc3ncc(C(F)(F)F)s3)CC2=O)cc1` (stereo not shown) [Example 3-29, 1-(4-methylbenzyl)-5-oxo-N-(5-(trifluoromethyl)thiazol-2-yl)pyrrolidine-3-carboxamide], in assay [1], the concentration for a half-maximal effect (EC50) is 0.5 to 1 µM and the “Ratio UBE2M WT to KO” value is given as over 16. Also, the DC50 in assay [3] is over 10 µM. Further, the concentration for a half-maximal effect (EC50) in assay [4] was over 10 µM. Moreover, the “NanoBRET fold-change Activity Class” value in assay [5] is “B (3-4 fold increase)”.
As to `Cc1ccc2c(CC(=O)Nc3ccc(C(F)(F)F)cn3)coc2c1C` [Example 3-54, 2-(6,7-dimethylbenzofuran-3-yl)-N-(5-(trifluoromethyl)pyridin-2-yl)acetamide], in assay [1], the EC50 was at most 0.25 µM and the “Ratio UBE2M WT to KO” value is recorded as 24.7. Besides, the DC50 in assay [3] is over 10 µM. For the same molecule, the EC50 in assay [4] was in the range of 1 to 10 µM. In assay [5], the “NanoBRET fold-change Activity Class” value is given as “C (2-3 fold increase)”.
